Tests used:
Assay type in all cases: functional
[1] = species on record: Mus musculus; test: Inhibitory activity against LPS-induced NO production in mouse peritoneal macrophages was evaluated
[2] = species on record: Rattus norvegicus; test: Inhibitory activity against D-GalN-induced cytotoxicity in rat hepatocytes; settings: Hepatocyte
[3] = species on record: Rattus norvegicus; test: Inhibitory activity against D-GalN-induced cytotoxicity in rat hepatocytes at 100 uM; settings: Hepatocyte
[4] = species on record: Mus musculus; test: Inhibitory activity against LPS-induced NO production in mouse peritoneal macrophages was evaluated at 100 uM
[5] = species on record: Mus musculus; test: Inhibitory activity from the roots of Angelica furcijuga on LPS-induced NO production in mouse peritoneal macrophages was evaluated at 100 uM

SMILES	IC50 [1] [µM]	IC50 [2] [µM]	inhibition at 100 µM [3] [%]	inhibition at 100 µM [4] [%]	inhibition at 100 µM [5] [%]	Inhibition [1] [%]
C/C=C(\C)C(=O)O[C@@H]1[C@H](OC(=O)C(C)C)c2c(ccc3ccc(=O)oc23)OC1(C)C	8.8	> 100	10			
C=C[C@@H](O)C#CC#CC/C=C\CCCCCCC	4.8	> 100	-0.6			
CC1(C)Oc2ccc3ccc(=O)oc3c2[C@H](O)[C@H]1O	> 100	> 100	1.5	36		
CC1(C)Oc2ccc3ccc(=O)oc3c2C[C@H]1O[C@@H]1O[C@H](CO)[C@@H](O)[C@H](O)[C@H]1O	> 100	> 100	1.4		21	
COc1cc(C(O)C(CO)Oc2ccc(/C=C/CO[C@@H]3O[C@H](CO)[C@@H](O)[C@H](O)[C@H]3O)cc2OC)ccc1O (stereo partly drawn)	> 100	> 100	-0.2			-26
CC(=O)O[C@@H]1c2c(ccc3ccc(=O)oc23)OC(C)(C)[C@@H]1OC(=O)C1(C)OC1C (stereo partly drawn)	53	29				
CC(=O)O[C@@H]1[C@H](OC(=O)CC(C)C)c2c(ccc3ccc(=O)oc23)OC1(C)C [SUKSDORFIN]	11	> 100	-3.4			
C/C=C(\C)C(=O)O[C@@H]1[C@H](OC(C)=O)c2c(ccc3ccc(=O)oc23)OC1(C)C	8.8	> 100	13			
CCC(C)C(=O)O[C@@H]1c2c(ccc3ccc(=O)oc23)OC(C)(C)[C@@H]1OC(C)=O (stereo partly drawn)	8.2	> 100	-2.5			
C/C=C(\C)C(=O)O[C@@H]1[C@H](OC(=O)C(C)CC)c2c(ccc3ccc(=O)oc23)OC1(C)C (stereo partly drawn)	5.1	> 100	-0.5			
C=C[C@@H](O)C#CC#C[C@@H](O)/C=C\CCCCCCC [FALCARINDIOL]	4.4	> 100	-33			
C/C=C(\C)C(=O)O[C@@H]1c2c(ccc3ccc(=O)oc23)OC(C)(C)[C@@H]1OC(C)=O [PTERYXIN]	20	> 100	4.4			
C/C=C(\C)C(=O)O[C@@H]1c2c(ccc3ccc(=O)oc23)OC(C)(C)[C@@H]1OC(=O)/C(C)=C/C	3.4	> 100	2.8			
CC(C)(O)[C@H](O)Cc1cc2ccc(=O)oc2cc1O[C@@H]1O[C@H](CO)[C@@H](O)[C@H](O)[C@H]1O	> 100	> 100	5.8		49	
CC(C)(O)C1Cc2cc(CCC(=O)O)c(O[C@@H]3O[C@H](CO)[C@@H](O)[C@H](O)[C@H]3O)cc2O1 (stereo partly drawn)	> 100	> 100	0.6		32	
CC(=O)O[C@@H]1[C@H](OC(=O)C(C)C)c2c(ccc3ccc(=O)oc23)OC1(C)C [SERAVSHANIN]	4.2	> 100	-2.2			
O=c1ccc2ccc(O[C@@H]3O[C@H](COC4OC[C@](O)(CO)[C@H]4O)[C@@H](O)[C@H](O)[C@H]3O)cc2o1 (stereo partly drawn)	> 100	> 100	-2.1		36	
CC1(C)Oc2ccc3ccc(=O)oc3c2[C@@H](O)[C@H]1O	91	> 100	6.5			
COc1c2ccoc2cc2oc(=O)ccc12 [BERGAPTEN]	> 100	> 100	23		49	
